Entries after “also recorded” stand apart in the source; their conditions may differ. Read-outs that look alike come from different tables or passages of the source.
Columns and labels:
[1] = Biodistribution in brainstem and serum of mice, HPLC analysis of tissue extracts; format: in vivo; details: for concentration at 3 h: ip, 3 hours after intraperitoneal injection
Text: Study of JMJD3 demethylase inhibitors. […] Because of its promising anti-tumor activities, GSK-J4 has been used to treat many kinds of tumors in preclinical models including T-cell acute lymphoblastic leukemia, acute myeloid leukemia, diffuse large B-cell lymphoma, neuroblastoma, prostate cancer, gastric cancer, and DIPG. The major challenge of GSK-J4 in clinical development is that GSK-J4 is a prodrug and is rapidly converted to the active drug […] in vivo (FIG. 1). […] The development of novel compounds such as UR-8 offered desirable properties including good cellular and brain transport which is essential to improving in vivo efficacy.
UR-8 was administered by intraperitoneal injection to mice that were euthanized at 3 hours following UR-8 administration. Their brains were immediately resected, the brainstem was dissected from the surrounding brain, and the serum was collected by cardiac puncture. […] GSK-J1 was highly detected in either serum and brainstem in the mice treated with GSK-J4 in compared to that of the mice treated with UR-8. GSK-J4 was not detected in any specimens from mice treated with GSK-J4.

[2] = system: SF8628 intracranial (brainstem) tumor; experiment: In vivo anti-tumor activity in patient-derived K27M DIPG xenografted mice; details: for Survival, log-rank test P, control vs. compound: vs vehicle control (DMSO)
Procedure: Mice with SF8628 intracranial (brainstem) tumor were randomized to four treatment groups: vehicle control (DMSO, n=7), GSK-J4 (100 mg/kg/day for 10 consecutive days, n=8), UR-8 (100 mg/kg/day for 10 consecutive days, n=8), and UR-17 (100 mg/kg/day for 10 consecutive days, n=8). FIG. 3 (A) Upper: Growth plots for intracranial tumors using tumor bioluminescence values. Lower: Corresponding tumor bioluminescence intensity overlay images for representative vehicle-treated, GSK-J4, UR-17, and UR-8-treated mice. FIG. 3 (B) Corresponding survival plots for each experiment. Statistical analysis was performed using a log-rank test: control vs. GSK-J4, **P=0.0094; control vs. UR-8, ***P=0.0002; control vs. UR-17, ***P=0.0008; GSK-J4 vs. UR-8, ***P=0.0008; UR-8 vs. UR-17, *P=0.0197. FIG. 3 (c) Effects of UR-8 on cell proliferation.
UR-8 inhibited tumor growth and prolonged survival of mice bearing human DIPG xenografts—Based on the biological effects of UR-analogs in vitro, it was hypothesized that UR-analogs would suppress tumor growth and increase survival in mice with orthotopic (brainstem) human DIPG xenografts. To determine in vivo anti-tumor activity of UR-analogs, the mice were implanted with SF8628 DIPG cells in the brainstem and were treated with 100 mg/kg of GSK-J4, UR-8, and UR-17 for 10 consecutive days.

[3] = system: H3K27M DIPG cell lines (H3.3 K27M SF8628, H3.3 K27M DIPG-007, and H3.1 K27M SU-DIPGIV); experiment: Inhibition of DIPG cell growth (cytotoxic activity), 72 hours treatment; format: cell-based; details: Homo sapiens; three H3K27M mutant DIPG cell lines (SF8628, DIPG-007, SU-DIPGIV), treated for 72 hours
Procedure: Specifically, UR-8 and UR-17 induced dose dependent inhibition of the growth of K27M DIPG cells—To determine the potential of the UR-analog series, UR-8 and UR-17 were selected for initial studies on DIPG cell growth. Thus, three H3K27M DIPG cell lines (H3.3 K27M SF8628, H3.3 K27M DIPG-007, and H3.1 K27M SU-DIPGIV) were treated with GSK-J4 (R&D System), UR-8, and UR-17 for 72 hours.

[4] = SF8628 brainstem xenograft, 100 mg/kg for 10 consecutive days
[5] = SF8628 brainstem xenograft, 100 mg/kg/day for 10 consecutive days

| Structure (SMILES) | GSK-J1 concentration, Brainstem ([1]; GSK-J4 treated mice, analyte GSK-J1, 3 hours after administration) [ng/mL] | GSK-J1 concentration, Serum ([1]; GSK-J4 treated mice, analyte GSK-J1, 3 hours after administration, intraperitoneal) [ng/mL] | Brain penetration ratio (GSK-J1) ([1]; brainstem concentration as % of serum concentration, analyte GSK-J1, GSK-J4 treated mice) [%] | Species found in brainstem tissue after GSK-J4 treatment ([1]; mice euthanized at 3 hours after completion of GSK-J4 treatment) | GSK-J4 detection in specimens from mice treated with GSK-J4 ([1]; serum and brainstem, HPLC) | Survival benefit of treated mice [2, 4] | Tumor growth rate (bioluminescence monitoring) [2, 4] | Survival, log-rank test P, control vs. compound [2, 5] | IC50 [3] [µM] | Brain penetration ratio (UR-8) ([1]; brainstem concentration as % of serum concentration, analyte UR-8, UR-8 treated mice) [%] | Kp at 3 h ([1]; mouse, brainstem relative to serum, intraperitoneal, brainstem concentration as % of serum concentration, analyte UR-8, UR-8 treated mice, read-out: Brain penetration ratio (UR-8)) | concentration at 3 h ([1]; mouse, brainstem, UR-8 treated mice, analyte UR-8, read-out: UR-8 concentration, Brainstem) [ng/mL] | concentration at 3 h ([1]; mouse, serum, UR-8 treated mice, analyte UR-8, read-out: UR-8 concentration, Serum) [ng/mL] | Survival, log-rank test P, GSK-J4 vs. UR-8 [2, 5] | Survival, log-rank test P, UR-8 vs. UR-17 [2, 5] | Therapeutic benefit compared with the other compounds ([2]; intracranial (brainstem) human DIPG xenografted mice, comparison with GSK-J4 / UR-17) |
| --- | --- | --- | --- | --- | --- | --- | --- | --- | --- | --- | --- | --- | --- | --- | --- | --- |
| CCOC(=O)CCNc1cc(N2CCc3ccccc3CC2)nc(-c2ccccn2)n1 [GSK-J4] | 141.5 ± 50.2 | 31250 ± 18879 | 0.61 ± 0.53 | only GSK-J1 | not detected | substantial survival benefit | reduced tumor growth rate | 0.0094 | – | – | – | – | – | – | – | – |
| OCCCNc1cc(N2CCc3ccccc3CC2)nc(-c2ccccn2)n1 [UR-8, 3-((2-(pyridin-2-yl)-6-(1,2,4,5-tetrahydro-3H-benzo[d]azepin-3-yl)pyrimidin-4-yl)amino)propan-1-ol] | – | – | – | – | – | significant benefit | – | 0.0002 | 4 to 6 | 8.77 ± 2.37 | 0.0877 ± 0.0237 | 410 ± 244 | 4460 ± 1580 | 0.0008 | 0.0197 | outperforming either GSK-J4 or UR-17; also recorded: greater anti-tumor activity and survival benefit than that obtained by GSK-J4 treatment |

Reference: patent US12709608B2, “4-amino pyrimidine compounds for the treatment of cancer” (University of Rochester, priority 2021, dated 2026)
